Reference: patent US20220202799A1, “PHARMACEUTICAL FORMULATIONS CONTAINING P2Y14 ANTAGONISTS” (priority 2019, published 2022)
Where “and” joins values, the source holds several entries; their conditions need not be identical. Equal entries are not always repeated. Where two headings read alike, the source gives them in different places.

Legend:
[1] = Plasma concentrations during 24-hour continuous intravenous infusion; format: in vivo, Sprague-Dawley rats; details: male, Sprague-Dawley, rat, plasma, iv, male Sprague-Dawley rats
Procedure: The safety and pharmacokinetics of PPTN (KB-1801) in rats receiving continuous intravenous injections of SBECD-containing solutions were analyzed. Three cohorts of six male and six female rats each were given continuous intravenous infusion of PPTN (KB-1801) at 10 mg/kg/day, 30 mg/kg/day or 100 mg/kg/day in a dosing solution containing PPTN at 0.25 mg/mL, 0.75 mg/mL or 2.5 mg/mL and SBECD at about 3.8%. Dosing volume was 40 mIkg/day. [table]

[2] = Urine concentrations, 24-hour continuous intravenous infusion; format: in vivo, Sprague-Dawley rats; details: for Total amount in urine: all intervals; for Total amount in urine / Amount in urine: individual animals
Procedure: The safety and pharmacokinetics of PPTN (KB-1801) in rats receiving continuous intravenous injections of SBECD-containing solutions were analyzed. Three cohorts of six male and six female rats each were given continuous intravenous infusion of PPTN (KB-1801) at 10 mg/kg/day, 30 mg/kg/day or 100 mg/kg/day in a dosing solution containing PPTN at 0.25 mg/mL, 0.75 mg/mL or 2.5 mg/mL and SBECD at about 3.8%. Dosing volume was 40 mIkg/day.

[3] = Stability of PPTN/SBECD solution on dilution into saline; format: physicochemical; details: 9 mg/mL PPTN
Procedure: The stability of PPTN in SBECD-containing solutions was analyzed at various concentrations of PPTN. A solution containing 9 mg/mL PPTN and 12% SBECD, as described above, was diluted into saline as described in Table 13.

[4] = 10 mg/kg, 24-hour intravenous infusion at 10 mg/kg, read-out: Plasma concentration, individual animal
[5] = 10 mg/kg, 24-hour intravenous infusion at 10 mg/kg, read-out: Plasma concentration, Mean
[6] = 30 mg/kg, 24-hour intravenous infusion at 30 mg/kg, read-out: Plasma concentration, Mean
[7] = 30 mg/kg, 24-hour intravenous infusion at 30 mg/kg, read-out: Plasma concentration, individual animal
[8] = 100 mg/kg, 24-hour intravenous infusion at 100 mg/kg, read-out: Plasma concentration, Mean
[9] = 100 mg/kg, 24-hour intravenous infusion at 100 mg/kg, read-out: Plasma concentration, individual animal

Question: Which concentration at 2 h [1, 4] does the source give for `O=C(O)c1cc(-c2ccc(C3CCNCC3)cc2)c2ccc(-c3ccc(C(F)(F)F)cc3)cc2c1` [KB-1801, 4-[4-(piperidin-4-yl)phenyl]-7-[4-(trifluoromethyl)phenyl]-2-naphthoic acid] here?
Answer: Its concentration at 2 h is 327 ng/mL.

Question: And the concentration at 4 h [1, 5]?
Answer: The concentration at 4 h was 378 ng/mL.

Question: And the concentration at 6 h [1, 5]?
Answer: Its concentration at 6 h is 417 ng/mL.

Question: And the concentration at 6 h [1, 4]?
Answer: The concentration at 6 h was 508 ng/mL.

Question: What about the concentration at 8 h [1, 5] of the same compound?
Answer: Its concentration at 8 h is 416 ng/mL.

Question: What about the concentration at 8 h [1, 4] of the same compound?
Answer: The concentration at 8 h was 430 ng/mL.

Question: And the concentration at 24 h [1, 5]?
Answer: Its concentration at 24 h is 703 ng/mL.

Question: And the concentration at 1 h [1, 6]?
Answer: Its concentration at 1 h is 1020 ng/mL.

Question: And the concentration at 2 h [1, 6]?
Answer: Its concentration at 2 h is 1100 ng/mL.

Question: What about the concentration at 4 h [1, 6] of the same compound?
Answer: The concentration at 4 h was 1320 ng/mL.

Question: What about the concentration at 4 h [1, 7] of the same compound?
Answer: The concentration at 4 h was 1460 ng/mL.

Question: What about the concentration at 6 h [1, 6] of the same compound?
Answer: The concentration at 6 h was 1470 ng/mL.

Question: What about the concentration at 6 h [1, 7] of the same compound?
Answer: The concentration at 6 h was 1170 ng/mL.

Question: What about the concentration at 8 h [1, 6] of the same compound?
Answer: The concentration at 8 h was 1500 ng/mL.

Question: And the concentration at 8 h [1, 7]?
Answer: The concentration at 8 h was 1450 ng/mL.

Question: And the concentration at 24 h [1, 6]?
Answer: Its concentration at 24 h is 2830 ng/mL.

Question: What about the concentration at 24 h [1, 7] of the same compound?
Answer: Its concentration at 24 h is 2880 ng/mL.

Question: What about the concentration at 1 h [1, 8] of the same compound?
Answer: Its concentration at 1 h is 2120 ng/mL.

Question: And the concentration at 1 h [1, 9]?
Answer: The concentration at 1 h was 1530 ng/mL.

Question: And the concentration at 2 h [1, 8]?
Answer: The concentration at 2 h was 2760 ng/mL.

Question: And the concentration at 4 h [1, 8]?
Answer: The concentration at 4 h was 3940 ng/mL.

Question: What about the concentration at 4 h [1, 9] of the same compound?
Answer: The concentration at 4 h was 3560 ng/mL.

Question: And the concentration at 6 h [1, 8]?
Answer: The concentration at 6 h was 6660 ng/mL.

Question: What about the concentration at 8 h [1, 8] of the same compound?
Answer: The concentration at 8 h was 5770 ng/mL.

Question: And the concentration at 8 h [1, 9]?
Answer: The concentration at 8 h was 6520 ng/mL.

Question: And the concentration at 24 h [1, 8]?
Answer: The concentration at 24 h was 8740 ng/mL.

Question: What about the concentration at 24 h [1, 9] of the same compound?
Answer: The concentration at 24 h was 10700 ng/mL.

Question: What about the “Total amount in urine” value ([2]; 24-hour IV infusion 10 mg/kg, female rats) of the same compound?
Answer: Its value is 6.29 µg and 1.92 µg and 6.27 µg and 24.6 µg and 20.3 µg and 2.33 µg.

Question: What about the Amount in urine ([2]; 24-hour IV infusion 10 mg/kg, female rats, interval 0-4 h) of the same compound?
Answer: The Amount in urine was 0.16 µg and 0.14 µg and 0.81 µg and 4.98 µg and 2.11 µg.

Question: And the Amount in urine ([2]; 24-hour IV infusion 10 mg/kg, female rats, interval 4-9 h)?
Answer: Its Amount in urine is 5.74 µg and 1.32 µg and 11.2 µg and 0.05 µg and 0.23 µg.

Question: What about the Amount in urine ([2]; 24-hour IV infusion 10 mg/kg, female rats, interval 9-24 h) of the same compound?
Answer: The Amount in urine was 0.39 µg and 0.46 µg and 5.46 µg and 13.4 µg and 15.3 µg.

Question: What about the “Total amount in urine” value ([2]; 24-hour IV infusion 30 mg/kg, female rats) of the same compound?
Answer: The value was 22.6 µg and 2.00 µg and 6.83 µg and 40.2 µg and 30.9 µg and 57.2 µg.

Question: And the Amount in urine ([2]; 24-hour IV infusion 30 mg/kg, female rats, interval 0-4 h)?
Answer: Its Amount in urine is 8.76 µg and 2.00 µg and 0.003 µg and 7.08 µg and 0.71 µg.

Question: And the Amount in urine ([2]; 24-hour IV infusion 30 mg/kg, female rats, interval 4-9 h)?
Answer: Its Amount in urine is 9.17 µg and 16.2 µg and 22.6 µg and 29.6 µg.

Question: And the Amount in urine ([2]; 24-hour IV infusion 30 mg/kg, female rats, interval 9-24 h)?
Answer: The Amount in urine was 27.6 µg and 4.65 µg and 6.83 µg and 17.0 µg and 7.56 µg.

Question: What about the “Total amount in urine” value ([2]; 24-hour IV infusion 30 mg/kg, male rats) of the same compound?
Answer: The value was 61.7 µg and 63.3 µg and 9.64 µg and 18.1 µg and 243.3 µg and 31.4 µg.

Question: And the Amount in urine ([2]; 24-hour IV infusion 30 mg/kg, male rats, interval 0-4 h)?
Answer: The Amount in urine was 0.01 μg (3×) and 2.03 μg and 0.001 μg and 33.9 μg.

Question: And the Amount in urine ([2]; 24-hour IV infusion 30 mg/kg, male rats, interval 4-9 h)?
Answer: Its Amount in urine is 26.0 µg and 43.8 µg and 5.65 µg and 0.003 µg and 11.8 µg and 21.8 µg.

Question: What about the Amount in urine ([2]; 24-hour IV infusion 30 mg/kg, male rats, interval 9-24 h) of the same compound?
Answer: The Amount in urine was 9.64 µg and 35.7 µg and 17.4 µg and 3.98 µg and 18.1 µg and 197.6 µg.

Question: What about the “Total amount in urine” value ([2]; 24-hour IV infusion 100 mg/kg, female rats) of the same compound?
Answer: Its value is 45.8 µg and 48.8 µg and 64.7 µg and 43.0 µg and 149.9 µg and 171.6 µg.

Question: What about the Amount in urine ([2]; 24-hour IV infusion 100 mg/kg, female rats, interval 0-4 h) of the same compound?
Answer: The Amount in urine was 0.02 µg and 0.01 µg and 9.75 µg and 3.61 µg and 25.6 µg and 10.7 µg.

Question: What about the Amount in urine ([2]; 24-hour IV infusion 100 mg/kg, female rats, interval 4-9 h) of the same compound?
Answer: The Amount in urine was 1.83 µg and 19.3 µg and 5.96 µg and 0.01 µg and 27.4 µg.

Question: And the Amount in urine ([2]; 24-hour IV infusion 100 mg/kg, female rats, interval 9-24 h)?
Answer: Its Amount in urine is 133.5 µg and 43.9 µg and 48.8 µg and 35.7 µg and 33.4 µg and 124.3 µg.

Question: What about the “Total amount in urine” value ([2]; 24-hour IV infusion 100 mg/kg, male rats) of the same compound?
Answer: The value was 239.6 µg and 82.2 µg and 0.001 µg and 186.8 µg and 228.4 µg and 526.5 µg.

Question: And the Amount in urine ([2]; 24-hour IV infusion 100 mg/kg, male rats, interval 0-4 h)?
Answer: The Amount in urine was 0.12 µg and 40.8 µg and 51.3 µg.

Question: What about the Amount in urine ([2]; 24-hour IV infusion 100 mg/kg, male rats, interval 4-9 h) of the same compound?
Answer: Its Amount in urine is 33.6 µg and 26.0 µg and 0.001 µg and 24.1 µg and 32.1 µg and 71.5 µg.

Question: What about the Amount in urine ([2]; 24-hour IV infusion 100 mg/kg, male rats, interval 9-24 h) of the same compound?
Answer: The Amount in urine was 403.7 µg and 206.0 µg and 56.1 µg and 162.6 µg and 155.6 µg.

Question: What about the “Total amount in urine, individual animal” value ([2]; male Sprague-Dawley rats, 24-hour intravenous infusion at 10 mg/kg, 0-24 h, 10 mg/kg) of the same compound?
Answer: The value was 45.5 µg and 49.8 µg and 14.8 µg and 67.4 µg and 19.0 µg and 3.25 µg.

Question: And the “Amount in urine, individual animal” value ([2]; male Sprague-Dawley rats, 24-hour intravenous infusion at 10 mg/kg, time interval 0-4 h, 10 mg/kg)?
Answer: Its value is 5.36 µg and 2.11 µg and 2.02 µg and 11.1 µg and 0.03 µg.

Question: What about the “Amount in urine, individual animal” value ([2]; male Sprague-Dawley rats, 24-hour intravenous infusion at 10 mg/kg, time interval 4-9 h, 10 mg/kg) of the same compound?
Answer: The value was 4.47 µg and 0.35 µg and 6.15 µg and 0.52 µg.

Question: What about the “Amount in urine, individual animal” value ([2]; male Sprague-Dawley rats, 24-hour intravenous infusion at 10 mg/kg, time interval 9-24 h, 10 mg/kg) of the same compound?
Answer: The value was 3.23 µg and 35.7 µg and 47.3 µg and 6.64 µg and 56.3 µg and 18.5 µg.

Question: And the “Urine concentration compared with plasma” value ([2]; rats, continuous intravenous infusion for 24 or 72 hours)?
Answer: Its value is “generally in excess of plasma concentrations”.

Question: What about the “Result (appearance after dilution)” value ([3]; 12% SBECD stock diluted 3x with saline) of the same compound?
Answer: The value was “Clear solution”.

Question: What about the “Result (appearance after dilution)” value ([3]; 12% SBECD stock diluted 10x with saline) of the same compound?
Answer: The value was “Clear solution”.

Question: What about the “Result (appearance after dilution)” value ([3]; 12% SBECD stock diluted 50x with saline) of the same compound?
Answer: Its value is “Clear solution”.
